The values below are quoted from earlier work in US20260027339A1, “FLEXIBLE IMPLANTABLE DEPOTS FOR CONTROLLED DRUG RELEASE” (Foundry Therapeutics, Inc., priority 2023, published 2026).

One may read the LD50 as the dose at which mortality reaches 50%.

Like-named read-outs stand apart in the source and are kept apart here.

The conditions of series [1]: at 25° C.
In series [2] the test system is rats.

As for `OCc1ccccc1` [benzyl alcohol], in series [1], the vapor pressure is 12.53.

Consider `CCCCN1CCCCC1C(=O)Nc1c(C)cccc1C` (stereo not drawn) [bupivacaine], for which the LD50 in series [2] (intravenous) is given as 6 mg/kg; in series [2] (subcutaneous) it was 43 mg/kg.

For the molecule `CC(=O)OCC(COC(C)=O)OC(C)=O` [triacetin], the vapor pressure in series [1] is recorded as 0.33 Pa.

Regarding `CCOC(=O)c1ccccc1C(=O)OCC` [diethyl phthalate], the vapor pressure in series [1] is reported as 0.28 Pa.

In the case of `O=C(OCc1ccccc1)c1ccccc1` [benzyl benzoate], in series [1], the vapor pressure is listed as 0.03 Pa.
